Reference: patent US7759373B2, “Large conductance calcium-activated K channel opener” (Mitsubishi Tanabe Pharma Corporation, priority 2001, dated 2010)
Structures can show the parent of a compound that is named as a salt.

System: isolated rabbit urinary bladder
Test: Relaxation effect on potassium-induced contraction of isolated rabbit urinary bladder
Assay type: cell-based
Conditions: Oryctolagus cuniculus; 50% relaxation concentration; high-K+ (30 mM) pre-contracted rabbit bladder strips; relaxation as percentage of the maximum produced by 0.1 mM papaverine; read-out: EC50 value range
Outline: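 Mucosa-free longitudinal bladder strips from male NZW rabbits, held at 37 °C in Krebs solution gassed with 95% O2/5% CO2, were precontracted with 30 mM K+. Compounds were added cumulatively (10^−8–10^−4 M), with isometric relaxation expressed relative to 0.1 mM papaverine maximum. EC50 was derived and reported as rank ranges.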
`CSc1ccc(-c2nc(CC(=O)[O-])c(-c3cccs3)o2)cn1.[Na+]` [Preparation Example 366, 2-(6-methylthiopyridin-3-yl)-5-(2-thienyl)oxazol-4-yl acetic acid sodium salt] gave an EC50 of at most 500 nM.
`CCc1nc(-c2ccc(F)cc2)[nH]c1-c1ccsc1` [Preparation Example 171] gave an EC50 of 1000 to 3000 nM.
`O=C(O)Cc1nc(-c2cc3ccccc3s2)sc1-c1ccc(Cl)s1` [Preparation Example 610] showed an EC50 of at most 500 nM.
`Clc1ccc(-c2ncc(-c3cccnc3)[nH]2)s1` [Preparation example 25] showed an EC50 of at most 500 nM.
With `O=C(O)Cc1nc(-c2nc3ccccc3s2)oc1-c1ccc(Cl)s1` [Preparation Example 446] the EC50 was at most 500 nM.
Work on `COc1ccc(-c2nc(CC(=O)O)c(-c3ccsc3)o2)cc1C` [Preparation Example 438] yielded an EC50 of 1000 to 3000 nM.
Compound `Cc1cc(-c2oc(-c3ccc(F)cc3)nc2CC(=O)O)sc1Cl` [Preparation Example 257] has an EC50 of at most 500 nM.

System: rhythmic bladder contractions induced by substance P
Test: Inhibitory effect on the rhythmic bladder contractions induced by substance P in anesthetized rats
Assay type: in vivo, rat
Conditions: time during which frequency of rhythmic contraction was completely inhibited, 0.25 mg/kg of the compound, substance P infusion
Outline: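 Value is duration (min) of complete inhibition of bladder contractions, ranked A/B/C at 20 and 10 min cut-offs. Intravenous dosing (0.5% Tween 80 saline) in female SD rats under urethane, bladder saline-filled and contractions maintained by substance P infusion, 0.33 μg/kg/min.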
In the case of `CSc1ccc(-c2nc(CC(=O)[O-])c(-c3cccs3)o2)cn1.[Na+]` [Preparation Example 366, 2-(6-methylthiopyridin-3-yl)-5-(2-thienyl)oxazol-4-yl acetic acid sodium salt], the “100% inhibition time range” value is reported as “C (A≧20>B≧10>C (minute))”.
In the case of `CCc1nc(-c2ccc(F)cc2)[nH]c1-c1ccsc1` [Preparation Example 171], the “100% inhibition time range” value is reported as “B (A≧20>B≧10>C (minute))”.
With `O=C(O)Cc1nc(-c2cc3ccccc3s2)sc1-c1ccc(Cl)s1` [Preparation Example 610] the “100% inhibition time range” value was “B (A≧20>B≧10>C (minute))”.
In the case of `Clc1ccc(-c2ncc(-c3cccnc3)[nH]2)s1` [Preparation example 25], the “100% inhibition time range” value is reported as “B (A≧20>B≧10>C (minute))”.
In the case of `O=C(O)Cc1nc(-c2nc3ccccc3s2)oc1-c1ccc(Cl)s1` [Preparation Example 446], the “100% inhibition time range” value is reported as “C (A≧20>B≧10>C (minute))”.
With `COc1ccc(-c2nc(CC(=O)O)c(-c3ccsc3)o2)cc1C` [Preparation Example 438] the “100% inhibition time range” value was “C (A≧20>B≧10>C (minute))”.
In the case of `Cc1cc(-c2oc(-c3ccc(F)cc3)nc2CC(=O)O)sc1Cl` [Preparation Example 257], the “100% inhibition time range” value is reported as “B (A≧20>B≧10>C (minute))”.

System: not given
Test: not given
Conditions: not given
In the case of `CCCc1nc(-c2ccc(C#N)cc2)[nH]c1-c1ccccc1` (as salt: HCl) [Preparation example 31], the melting point is reported as 258 to 260 °C.
In the case of `COCc1nc(-c2ccc(C)nc2)[nH]c1-c1cccnc1` (as salt: HCl) [Preparation example 127], the melting point is reported as 251 to 255 °C.
Compound `Fc1ccc(-c2nc(C3CCCCC3)c(-c3ccsc3)[nH]2)cc1` [Preparation example 45] has a melting point of 171 to 173 °C.
`CCc1nc(-c2csc(Cl)c2)[nH]c1-c1cccnc1` (as salt: HCl) [Preparation example 55] gave a melting point of 205 to 207 °C.
Compound `CCCc1nc(-c2ccc(F)cc2)[nH]c1-c1ccccc1` (as salt: HCl) [Preparation example 88] has a melting point of 224 to 226 °C.
In the case of `CCCc1nc(-c2ccc(F)cc2)[nH]c1Br` (as salt: HCl) [Preparation example 79], the melting point is reported as 178 to 180 °C.
In the case of `Fc1cccc(-c2ncc(-c3ccccc3)[nH]2)c1` (as salt: HCl) [Preparation example 41], the melting point is reported as 250 to 255 °C.
Compound `CCOC(=O)Cc1nc(-c2cnc3occc3c2)oc1-c1ccc(Cl)s1` [Preparation Example 429] has a melting point of 145 to 146 °C.
Work on `CCOC(=O)Cc1nc(-c2ccc(Cl)cc2)oc1-c1ccco1` [Preparation Example 191] yielded a melting point of 109 to 111 °C.
`CCc1nc(-c2ccc(F)cc2)[nH]c1-c1ccc(C)nc1` (as salt: HCl) [Preparation example 47] gave a melting point of 260 to 262 °C.
`CCCc1nc(-c2ccc(F)cc2)[nH]c1-c1ccc([N+](=O)[O-])cc1` (as salt: HCl) [Preparation example 91] gave a melting point of 220 to 222 °C.
`CCc1nc(-c2csc(Br)c2)[nH]c1-c1cccnc1` (as salt: HCl) [Preparation example 19] showed a melting point of 214 to 216 °C.
Compound `CCc1nc(-c2ccccc2C(N)=O)[nH]c1-c1cccnc1` (as salt: HCl) [Preparation example 18] has a melting point of 250 to 253 °C.
In the case of `CCOC(=O)Cc1nc(-c2ccc(F)cc2)oc1-c1cc(C)cs1` [Preparation Example 163], the melting point is reported as 138 to 139 °C.
`C[S+]([O-])Cc1[nH]c(-c2ccc(F)cc2)nc1-c1ccccc1` (stereo not drawn) (as salt: HCl) [Preparation example 639] showed a melting point of 203 to 204 °C.
For `N#Cc1ccc(-c2ncc(-c3ccccc3)[nH]2)cc1` (as salt: HCl) [Preparation example 42], the melting point was over 300 °C.
`COCc1nc(-c2ccc(F)cc2)[nH]c1-c1ccccc1` (as salt: HCl) [Preparation example 121] showed a melting point of 204 to 207 °C.
In the case of `CCOC(=O)Cc1nc(-c2cc3ccccc3s2)oc1-c1ccsc1` [Preparation Example 408], the melting point is reported as 155 to 156.5 °C.
With `CCc1nc(-c2ccc(F)cc2)[nH]c1-c1nccs1` (as salt: HCl) [Preparation example 51] the melting point was 215 to 218 °C.
`Cc1ccc(-c2nc(CO)c(-c3cccnc3)[nH]2)cn1` (as salt: HCl) [Preparation example 114] showed a melting point of 266 to 269 °C.
`CCCc1nc(-c2cccc(F)c2)[nH]c1-c1ccccc1` (as salt: HCl) [Preparation example 30] gave a melting point of 192 to 193 °C.
In the case of `CCCc1nc(-c2cc(Cl)cs2)[nH]c1-c1ccccc1` (as salt: HCl) [Preparation example 40], the melting point is reported as 188 to 190 °C.
`CCOC(=O)Cc1nc(-c2ccc3ccccc3n2)oc1-c1ccsc1` [Preparation Example 428] showed a melting point of 168.5 to 169.5 °C.
Compound `Cc1nc(-c2csc(Cl)c2)[nH]c1-c1cccnc1` (as salt: HCl) [Preparation example 54] has a melting point of 198 to 201 °C.
`CCCc1nc(-c2ccsc2)[nH]c1-c1ccccc1` (as salt: HCl) [Preparation example 33] gave a melting point of 215 to 217 °C.
Compound `C[S+]([O-])Cc1nc(-c2cccc(F)c2)[nH]c1-c1ccccc1` (stereo not drawn) (as salt: HCl) [Preparation example 136] has a melting point of 198 to 200 °C.
`CCc1nc(-c2cccc(Cl)c2)[nH]c1-c1cccnc1` (as salt: HCl) [Preparation example 13] showed a melting point of 223 to 224 °C.
For `CCCc1nc(-c2cc3ccccc3o2)[nH]c1-c1ccccc1` (as salt: HCl) [Preparation example 38], the melting point was 185 to 188 °C.
Compound `COc1ccc(-c2nc(CC(=O)O)c(-c3ccsc3)o2)cc1` [Preparation Example 200] has a melting point of 198 to 199 °C.
With `CCc1nc(-c2ccc(F)cc2)[nH]c1-c1cncs1` (as salt: HCl) [Preparation example 86] the melting point was 254 to 256 °C.
For `OCc1nc(-c2ccc(F)cc2)[nH]c1-c1cccnc1` [Preparation example 113], the melting point was 225 to 228 °C.
In the case of `O=CCNc1[nH]c(-c2ccc(F)cc2)nc1-c1ccccc1` [Preparation example 106, 5-formylmethylamino-2-(4-fluorophenyl)-4-phenyl-imidazole], the melting point is reported as 256 to 258 °C.
Compound `CCc1nc(-c2ccc(F)cc2)[nH]c1-c1cncnc1` (as salt: HCl) [Preparation example 85] has a melting point of 287 to 289 °C.
In the case of `CCCc1nc(-c2ccc(C#N)cc2)[nH]c1-c1cccs1` (as salt: HCl) [Preparation example 8], the melting point is reported as 251 to 254 °C.
For `O=CCCNc1[nH]c(-c2ccc(F)cc2)nc1-c1ccccc1` [Preparation example 111, 5-formylethylamino-2-(4-fluorophenyl)-4-phenylimidazole], the melting point was 201 to 202 °C.
Work on `Clc1ccc(-c2nc(Cc3nnn[nH]3)c(-c3ccccc3)s2)cc1` [Preparation Example 632, 5-[2-(4-chlorophenyl)-5-phenyl-thiazol-4-ylmethyl]tetrazole] yielded a melting point of 213 to 214 °C.
Compound `CCc1nc(-c2ccc(F)cc2)[nH]c1-c1cnccn1` (as salt: HCl) [Preparation example 49] has a melting point of 241 to 243 °C.
Work on `CCOC(=O)Cc1nc(-c2ccc(F)cc2)oc1-c1ccccc1F` [Preparation Example 161] yielded a melting point of 88 to 89 °C.
With `CCCc1nc(-c2ccncc2)[nH]c1-c1cccs1` (as salt: HCl) [Preparation example 6] the melting point was 275 to 280 °C.
`CNc1[nH]c(-c2ccc(F)cc2)nc1-c1ccccc1` (as salt: hydrochloride) [Preparation example 107, 5-methylamino-2-(4-fluorophenyl)-4-phenylimidazole] showed a melting point of 253 to 255 °C.
For `CCc1[nH]c(-c2ccc(C)nc2)nc1-c1cccnc1.Cl.Cl.Cl`, the melting point was 270 to 273 °C (dec.).
Work on `CCc1nc(-c2cccs2)[nH]c1-c1cccnc1` (as salt: HCl) [Preparation example 20] yielded a melting point of 215 to 217 °C.
In the case of `CSCc1nc(-c2cccc(F)c2)[nH]c1-c1ccccc1` (as salt: HCl) [Preparation example 131], the melting point is reported as 218 to 220 °C.
With `CCCc1nc(-c2ccc(F)cc2)[nH]c1-c1ccc(SC)cc1` (as salt: HCl) [Preparation example 89] the melting point was 174 to 176 °C.
With `CCc1nc(-c2ccc(F)cc2)[nH]c1-c1ncccn1` (as salt: HCl) [Preparation example 50] the melting point was 190 to 192 °C.
With `CCc1nc(-c2ccc(F)cc2)[nH]c1Br` (as salt: hydrochloride) [Preparation example 77, 5-bromo-4-ethyl-2-(4-fluorophenyl)-imidazole] the melting point was 219 to 221 °C (dec.).
With `CCOC(=O)Cc1nc(-c2cccc(C)c2)oc1-c1cccs1` [Preparation Example 427] the melting point was 80 to 81 °C.
Work on `CCCc1nc(-c2ccc(F)cc2)[nH]c1-c1cccc(F)c1` (as salt: HCl) [Preparation example 99] yielded a melting point of 228 to 230 °C.
Compound `CCOC(=O)c1cc(-c2nc(CC)c(-c3cccnc3)[nH]2)cs1` [Preparation example 11] has a melting point of 187 to 189 °C.
Work on `CCCc1nc(-c2csc(Cl)c2)[nH]c1-c1ccccc1` (as salt: HCl) [Preparation example 34] yielded a melting point of 194 to 196 °C.
In the case of `CCOC(=O)Cc1nc(-c2ccc(SC)cc2)oc1-c1ccsc1` [Preparation Example 409], the melting point is reported as 77 to 78 °C.
Compound `CCOC(=O)Cc1nc(-c2ccc(OC)cc2)oc1-c1cccs1` [Preparation Example 154] has a melting point of 105 to 107 °C.
